Values quoted from earlier work as cited in patent publication EP0773217A1, “Benzothiphene derivatives for treating resistant tumors” (ELI LILLY AND COMPANY, priority 1995, dated 1997).
Values after ≈ are worked out from the molar mass of the structure shown.

What was measured:
HL60/S cells = details: no P-glycoprotein expression
HL60/Adr cells = HL60/Adr cells (resistant to doxorubicin, express p190, no P-glycoprotein)

COc1cc([C@@H]2c3cc4c(cc3[C@@H](O[C@@H]3O[C@@H]5CO[C@@H](C)O[C@H]5[C@H](O)[C@H]3O)[C@H]3COC(=O)[C@H]23)OCO4)cc(OC)c1O [ETOPOSIDE™, etoposide]
IC50 (HL60/S cells): 0.39 mg/L (≈ 0.663 µM)
IC50 (HL60/Adr cells): > 10 mg/L

COc1cccc2c1C(=O)c1c(O)c3c(c(O)c1C2=O)C[C@@](O)(C(=O)CO)C[C@@H]3O[C@H]1C[C@H](N)[C@H](O)[C@H](C)O1 [ADRIAMYCIN™, Doxorubicin]
IC50 (HL60/S cells): 0.011 mg/L (≈ 0.0202 µM)
IC50 (HL60/Adr cells): 2.2 mg/L (≈ 4.05 µM)
